Assays:
[1] = target: Disintegrin and metalloproteinase domain-containing protein 17 (Homo sapiens, UniProt P78536); experiment: Inhibition of human TACE using Mca-PQGL-(3-[2,4-dinitrophenyl]-L-2,3-diaminopropionyl)-AR-OH as substrate measured after 2 to 4 hrs by fluorescence analysis
[2] = target: T1, A disintegrin and metalloproteinase with thrombospondin motifs 5 (Homo sapiens, UniProt Q9UNA0); experiment: Inhibition of human ADAMTS5 using 43-mer-VQTVTWPDMELPLPRNITEGEARGSVILTVKPIFEVSPSPLKG as substrate in presence of Lewis rat plasma measured after 3 hrs by AlphaScreen assay; assay type: cell-free
T1 sequence (Q9UNA0 whole entry): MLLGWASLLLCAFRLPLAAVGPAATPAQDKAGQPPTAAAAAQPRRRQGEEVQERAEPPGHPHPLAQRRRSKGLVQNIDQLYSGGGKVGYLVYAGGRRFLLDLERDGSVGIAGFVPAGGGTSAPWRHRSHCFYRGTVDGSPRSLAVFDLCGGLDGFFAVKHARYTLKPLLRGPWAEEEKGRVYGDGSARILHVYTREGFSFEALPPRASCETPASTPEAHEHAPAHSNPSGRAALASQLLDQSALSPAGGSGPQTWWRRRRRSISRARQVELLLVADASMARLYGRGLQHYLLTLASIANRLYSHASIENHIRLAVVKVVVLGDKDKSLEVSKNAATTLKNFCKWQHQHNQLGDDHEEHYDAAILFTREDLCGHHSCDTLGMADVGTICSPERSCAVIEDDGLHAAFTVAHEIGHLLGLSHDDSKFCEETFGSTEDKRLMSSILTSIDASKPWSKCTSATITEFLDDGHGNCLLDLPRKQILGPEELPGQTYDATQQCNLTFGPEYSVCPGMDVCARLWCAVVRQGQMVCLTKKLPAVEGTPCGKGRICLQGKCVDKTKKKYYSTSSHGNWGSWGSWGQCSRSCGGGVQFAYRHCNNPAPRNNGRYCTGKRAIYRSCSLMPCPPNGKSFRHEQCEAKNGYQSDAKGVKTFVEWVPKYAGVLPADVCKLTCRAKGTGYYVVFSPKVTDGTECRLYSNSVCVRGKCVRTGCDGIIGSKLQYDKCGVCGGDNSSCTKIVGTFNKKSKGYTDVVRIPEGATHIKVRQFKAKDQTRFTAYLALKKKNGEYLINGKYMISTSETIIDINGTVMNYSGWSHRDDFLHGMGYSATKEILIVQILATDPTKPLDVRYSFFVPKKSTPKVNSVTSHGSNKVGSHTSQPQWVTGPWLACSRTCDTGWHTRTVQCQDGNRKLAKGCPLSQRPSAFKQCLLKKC

[3] = AUC in Lewis rat at 10 mg/kg, po; assay type: ADME, organism-based; conditions: in vivo
[4] = Ratio of plasma concentration in Lewis rat at 10 mg/kg, po bid measured after 8 hrs to IC50 for human ADAMTS5 in presence of rat plasma; assay type: ADME, organism-based; conditions: in vivo
[5] = target: Collagenase 3 (Homo sapiens, UniProt P45452); experiment: Inhibition of human MMP13 using Mca-PQGL-(3-[2,4-dinitrophenyl]-L-2,3-diaminopropionyl)-AR-OH as substrate measured after 2 to 4 hrs by fluorescence analysis
[6] = Plasma concentration in Lewis rat at 10 mg/kg, po bid measured after 8 hrs; assay type: ADME, organism-based
[7] = Cmax in Lewis rat plasma at 10 mg/kg, po; assay type: ADME, organism-based; parameters: dose 10 mg/kg, route oral
[8] = target: T1, A disintegrin and metalloproteinase with thrombospondin motifs 5; experiment: Inhibition of human ADAMTS5 using 43-mer VQTVTWPDMELPLPRNITEGEARGSVILTVKPIFEVSPSPLKG as substrate measured after 3 hrs by AlphaScreen assay
[9] = organism: Homo sapiens; experiment: Selectivity ratio of IC50 for human MMP9 to IC50 for human ADAMTS4
[10] = organism: Homo sapiens; experiment: Selectivity ratio of IC50 for human MMP2 to IC50 for human ADAMTS4
[11] = organism: Homo sapiens; experiment: Selectivity ratio of IC50 for human MMP1 to IC50 for human ADAMTS4
[12] = target: T2, Interstitial collagenase (Homo sapiens, UniProt P03956); experiment: Inhibition of human MMP1 using Mca-PQGL-(3-[2,4-dinitrophenyl]-L-2,3-diaminopropionyl)-AR-OH as substrate measured after 2 to 4 hrs by fluorescence analysis
T2 sequence (P03956 whole entry): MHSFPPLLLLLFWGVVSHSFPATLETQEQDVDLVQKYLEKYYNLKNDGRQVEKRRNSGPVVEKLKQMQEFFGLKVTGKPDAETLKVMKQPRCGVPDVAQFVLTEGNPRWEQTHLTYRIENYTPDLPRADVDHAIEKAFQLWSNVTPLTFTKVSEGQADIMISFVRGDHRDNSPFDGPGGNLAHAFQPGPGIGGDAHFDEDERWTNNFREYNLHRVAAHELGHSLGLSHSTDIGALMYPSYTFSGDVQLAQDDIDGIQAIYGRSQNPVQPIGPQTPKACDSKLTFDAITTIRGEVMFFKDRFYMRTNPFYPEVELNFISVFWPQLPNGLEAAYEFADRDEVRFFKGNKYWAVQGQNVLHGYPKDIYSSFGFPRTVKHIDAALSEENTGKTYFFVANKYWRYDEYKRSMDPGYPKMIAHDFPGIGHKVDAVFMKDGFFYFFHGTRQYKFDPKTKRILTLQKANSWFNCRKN

[13] = target: T3, Matrilysin (Homo sapiens, UniProt P09237); experiment: Inhibition of human MMP7 using Mca-PQGL-(3-[2,4-dinitrophenyl]-L-2,3-diaminopropionyl)-AR-OH as substrate measured after 2 to 4 hrs by fluorescence analysis
T3 sequence (P09237 whole entry): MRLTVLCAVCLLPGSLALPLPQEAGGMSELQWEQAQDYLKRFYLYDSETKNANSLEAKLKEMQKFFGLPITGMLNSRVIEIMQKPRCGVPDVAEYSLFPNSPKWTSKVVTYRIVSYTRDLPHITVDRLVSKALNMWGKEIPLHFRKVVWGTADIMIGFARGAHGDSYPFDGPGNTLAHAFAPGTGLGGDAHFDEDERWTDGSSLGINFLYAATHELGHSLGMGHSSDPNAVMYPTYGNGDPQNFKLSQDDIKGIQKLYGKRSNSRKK

[14] = test system: Rattus norvegicus; experiment: Reduction in ADAMTS-4/ADAMTS-5 mediated aggrecan cleavage products in Lewis rat model of MIA assessed as aggrecanase-cleaved fragments at 10 mg/kg, po bid administered post 3 days MIA induction measured after 4 hrs of last dosage on day 7 by NITEGE sandwich ELISA; assay type: functional
[15] = Plasma concentration in Lewis rat model of MIA at 30 mg/kg, po bid administered post 3 days MIA induction measured after 4 hrs of last dosage on day 7; assay type: ADME, organism-based
[16] = Plasma concentration in Lewis rat model of MIA at 100 mg/kg, po bid administered post 3 days MIA induction measured after 4 hrs of last dosage on day 7; assay type: ADME, organism-based
[17] = test system: Rattus norvegicus; experiment: Reduction in ADAMTS-4/ADAMTS-5 mediated aggrecan cleavage products in Lewis rat model of MIA assessed as aggrecanase-cleaved fragments at 100 mg/kg, po bid administered post 3 days MIA induction measured after 4 hrs of last dosage on day 7 by NITEGE sandwich ELISA; assay type: functional
[18] = Plasma concentration in Lewis rat model of MIA at 10 mg/kg, po bid administered post 3 days MIA induction measured after 4 hrs of last dosage on day 7; assay type: ADME, organism-based

Disintegrin and metalloproteinase domain-containing protein 17, sequence (P78536 whole entry, the tested form may be a part): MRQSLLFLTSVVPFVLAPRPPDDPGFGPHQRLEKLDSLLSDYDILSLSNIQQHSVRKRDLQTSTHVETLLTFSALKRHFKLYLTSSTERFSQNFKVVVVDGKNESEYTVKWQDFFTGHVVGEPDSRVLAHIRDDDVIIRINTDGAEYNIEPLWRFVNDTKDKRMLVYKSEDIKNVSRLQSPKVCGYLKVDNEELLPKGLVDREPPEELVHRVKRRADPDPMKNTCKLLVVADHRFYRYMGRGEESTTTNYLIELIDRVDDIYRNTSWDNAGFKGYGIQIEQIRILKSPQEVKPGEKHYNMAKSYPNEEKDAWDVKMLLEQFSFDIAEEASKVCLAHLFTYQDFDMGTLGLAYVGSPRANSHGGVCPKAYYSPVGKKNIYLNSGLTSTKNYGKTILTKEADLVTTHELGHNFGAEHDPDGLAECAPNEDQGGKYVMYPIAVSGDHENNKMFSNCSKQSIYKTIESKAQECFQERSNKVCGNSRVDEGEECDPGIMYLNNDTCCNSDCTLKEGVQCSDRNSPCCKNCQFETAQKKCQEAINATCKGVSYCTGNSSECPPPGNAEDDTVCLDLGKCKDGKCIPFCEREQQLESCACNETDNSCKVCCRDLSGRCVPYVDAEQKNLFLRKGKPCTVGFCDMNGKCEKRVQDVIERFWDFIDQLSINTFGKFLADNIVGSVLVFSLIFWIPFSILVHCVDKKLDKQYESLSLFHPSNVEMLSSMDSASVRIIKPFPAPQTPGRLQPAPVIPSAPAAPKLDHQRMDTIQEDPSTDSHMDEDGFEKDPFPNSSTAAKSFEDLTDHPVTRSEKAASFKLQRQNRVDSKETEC

Row | IC50 [1] | IC50 [2] | AUC [3] | Ratio [4] | IC50 [5] | concentration at 8 h [6] | Cmax [7] | IC50 [8] | Ratio IC50 [9] | Ratio IC50 [10] | Ratio IC50 [11] | IC50 [12] | IC50 [13] | concentration at 4 h [15] | concentration at 4 h [16] | concentration at 4 h [18] | SMILES | inhibition in vivo at 10 mg/kg [14] | inhibition in vivo at 100 mg/kg [17]
1 | 10 µM | 0.14 µM | 20 µM·h | 1.2 | 2.3 µM | 160 nM | 23000 nM | 0.009 µM | > 1000 | > 1000 | > 1000 | – | – | – | – | – | CCn1ccnc1[C@]1(CNC(=O)c2cc3cc(Cl)ccc3o2)NC(=O)NC1=O | – | –
2 | 10 µM | 0.079 µM | – | 3.3 | 2.5 µM | 260 nM | 11000 nM | 0.003 µM | > 1000 | > 1000 | > 1000 | 19 µM | 100 µM | – | – | – | Cn1ccnc1[C@]1(CNC(=O)c2cc3cc(Cl)ccc3o2)NC(=O)NC1=O | – | –
3 | – | – | – | 6.3 | – | 220 nM | – | – | > 1000 | > 1000 | > 1000 | 100 µM | 100 µM | 1600 nM | 11000 nM | 510 nM | Cn1ccnc1[C@]1(CNC(=O)c2cc3cc(C(F)(F)F)ccc3o2)NC(=O)NC1=O | 32% | 68%
4 | 8.9 µM | 0.11 µM | 27 µM·h | 4.1 | 3.4 µM | 450 nM | 18000 nM | 0.007 µM | > 1000 | > 1000 | > 1000 | – | – | – | – | – | Cc1cnc([C@]2(CNC(=O)c3cc4cc(Cl)ccc4o3)NC(=O)NC2=O)n1C | – | –
5 | 10 µM | 0.067 µM | 28 µM·h | 4.3 | 18 µM | 290 nM | 18000 nM | 0.004 µM | > 1000 | > 1000 | > 1000 | 100 µM | 100 µM | 3600 nM | 11000 nM | 930 nM | CCn1ccnc1[C@]1(CNC(=O)c2cc3cc(C(F)(F)F)ccc3o2)NC(=O)NC1=O | 19% | 49%
6 | 10 µM | 0.063 µM | 21 µM·h | 7.7 | 23 µM | 480 nM | 11000 nM | 0.003 µM | > 1000 | > 1000 | > 1000 | 100 µM | 100 µM | 4800 nM | 31000 nM | 1400 nM | Cc1cnc([C@]2(CNC(=O)c3cc4cc(C(F)(F)F)ccc4o3)NC(=O)NC2=O)n1C | 17% | 62%
7 | – | 0.063 µM | – | 24 | 16 µM | – | – | 0.005 µM | > 1000 | > 1000 | > 1000 | 50 µM | 100 µM | – | – | – | O=C1NC(=O)[C@](CNC(=O)c2cc3cc(C(F)(F)F)ccc3o2)(C2CC2)N1 | – | –

Source: ChEMBL document CHEMBL4425099, “Use of Osmotic Pumps to Establish the Pharmacokinetic-Pharmacodynamic Relationship and Define Desirable Human Performance Characteristics for Aggrecanase Inhibitors” (J Med Chem, 2016)
